Data reported in US20130108645A1, “METHODS FOR ENHANCING AXONAL REGENERATION” (THE JOHNS HOPKINS UNIVERSITY, priority 2010, published 2013).

Assays:
[1] = Paclitaxel administration, body weight; type: in vivo, mouse; settings: 30 mg/kg intravenously via tail vein, 3 times a week for 2 weeks; WT and BACE1 KO mice
Experimental: Paclitaxel (LC laboratories) was dissolved in 100% ethonal. Equal volumes of paclitaxel solution and cremophor (Sigma-Aldrich, St. Louis, Mo.) were vigorously vortexed for 10 minutes. Ice cold saline (80% of the final volume) was added to freshly made paclitaxel/cremophor solution immediately before injection. 30 mg/kg body weight of paclitaxel in this solution was injected intravenously via tail vein at 3 times a week for 2 weeks.

[2] = tested on: WT mice; assay: Sciatic nerve crush in WT mice with systemic BACE1 inhibitor infusion via Alzet pumps; type: in vivo, mouse
Text: The inhibitors were systemically administered via subcutaneous catheters from Alzet pumps implanted in the interscapular space for 7 or 15 days.
Mice were deeply anesthetized with isoflurane and left sciatic nerves in the mid thigh or at the sciatic notch level were exposed and crushed by pulling tight a loop of 8-0 nylon black sutures for 30-40 seconds. The crush sites were marked with a 10-0 nylon black suture going through the epineurium only. For sciatic nerve transection, a small ˜2 mm piece of nerve was dissected out and the two nerve stumps were turned away from each other to prevent axonal regeneration to distal stumps. The distal stumps and contralateral nerves were collected 1-15 days post-transection.
Alzet pumps were filled, primed, and implanted as previously described in Farah, J. Neurosci. […] Neurol. […] The latter compound was synthesized by the NeuroTranslational team at the Brain Science Institute at Johns Hopkins University. Both inhibitors were dissolved in DMSO. According to the manufacturer's data, the pump continuously supplied 1-30 μg/hour of inhibitor for 7 days. To minimize the delay between implantation and the onset of release, the filled pumps were incubated in 1×PBS at 37° C. for 4 hours immediately before implantation. The mice were anesthetized by inhalation of isoflurane, and an incision, about 1.5 cm long, was made in the skin on top of the interscapular space. A filled Alzet pump was implanted subcutaneously into each mouse and incisions were closed with 9 mm stainless steel wound clips.
For fluorescent microscopy and immunostaining, mice were deeply anesthetized with 10% chloral hydrate and killed by transcardial perfusion with 1×PBS followed by 2% paraformaldehyde in […] phosphate buffer, pH 7.4, for 10-15 minutes. Tissues were then postfixed in the same fixative for 4-16 hr at 4° C. Sciatic nerves and gastrocnemius muscles were cryoprotected in 30% sucrose in 1×PBS overnight and quickly frozen in cold 2-methylbutane. Tissues were frozen sectioned on a cryostat at thickness of 10 or 20 μm for sciatic nerves and 50 μm for gastrocnemius muscles. In addition, the hind feet were decalcified, cryoprotected in 30% sucrose in 1×PBS, and sectioned at 50 μm thickness. Sciatic nerves were sectioned longitudinally using a Leica cryostat (model CM3050S, Leica Microsystems, Buffalo Grove, Ill.). Gastrocnemius muscles and foot were cross-sectioned by a freezing sliding microtome (Microm HM 450, Thermo Scientific, Waltham, Mass.).
To visualize YFP-positive degenerating and regenerating axons, animals were perfused as described above and sciatic nerves were collected. Whole-mounted sciatic nerves were imaged under a confocal microscope and Z-stack images were collected through the depth of the nerves.
For ultrastructural analyses, nerves were postfixed in OsO4 and embedded in Epon. Cross sections, at 1 μm thickness, were stained for toluidine blue and examined under light microscopy with 100× oil-immersion objective. 70 nm thin sections were obtained and stained for citrate/uranyl acetate. Electron micrographs were acquired using a Hitachi 7600 or Zeiss Libra transmission electron microscope.

[3] = tested on: WT DRG explants; assay: Axonal outgrowth of dorsal root ganglia (DRG) explants; settings: 50 nM, 4 days post culture
Experimental: Postnatal (P4-5) primary mouse DRG from WT littermate and BACE1 KO pups were established. Axonal outgrowth at 2 and 4 days post culture were measured.
Postnatal day 4-5 dorsal root ganglia (DRG) were dissected out of WT and BACE1 KO mice, and were maintained in neurobasal medium containing 2% B27 supplement and 50 ng/ml NGF (all reagents from Invitrogen, Carlsbad, Calif.). In some of the WT DRG explants, 50 nM-1 μM BACE1 inhibitor IV was added daily to the media. At least 8 explants were used for each condition. Axonal outgrowth of the DRG was monitored daily under phase-contrast microscopy, and images were acquired with Openlab software at 2 and 4 days post culture. The axon lengths were measured from the borders of the explants borders to the tips of axons using ImageJ (http://rsb.info.nih.gov/ij/).

For `CC(=O)O[C@H]1C(=O)[C@@]2(C)[C@H]([C@H](OC(=O)c3ccccc3)[C@]3(O)C[C@H](OC(=O)[C@H](O)[C@@H](NC(=O)c4ccccc4)c4ccccc4)C(C)=C1C3(C)C)[C@]1(OC(C)=O)CO[C@@H]1C[C@@H]2O` [Paclitaxel, paclitaxel], the weight loss [1] was “no significant weight loss”.
With `COc1ccc([C@]2(c3ccc(F)c(-c4cccnc4F)c3)N=C(N)N(C)C2=O)cc1C` [WAY 258131] the “β tubulin III staining of intra-plantar nerves of WT foot” value ([2]; 2 weeks after sciatic nerve crush and treatment) was “β tubulin III positive fibers are regenerated axons”.
In the case of `C[C@@H](NC(=O)c1cc(C(=O)N[C@@H](Cc2ccccc2)[C@H](O)CNC2CC2)cc(N(C)S(C)(=O)=O)c1)c1ccccc1` [BACE1 inhibitor IV], the “YFP-positive axonal debris in whole-mounted YFP-WT nerve” value ([2]; mouse, in vivo) is reported as “more fragmented”, the “post-phagocytic macrophages in electron micrograph of WT nerve” value ([2]; mouse, in vivo) is reported as “More post-phagocytic macrophages” and the “regenerated YFP-positive axons in whole-mounted YFP-WT nerve” value ([2]; mouse, in vivo) is reported as “numerous regenerated YFP-positive axons”. The “regenerated axons in electron micrograph of WT nerve” value ([2]; mouse, in vivo) was “more regenerated axons” and the “increase of axonal outgrowth of WT DRG explants” value [3] was 98.0%.
